Data from PubChem BioAssay (NCI).
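Compound exposure: 48 hours, 5 concentrations, 96-well plates. Abbreviation: GI50, concentration required for 50% inhibition of growth. At the TGI there is no net growth.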

What was measured:
Assay in all cases: inhibition of tumour cell growth, NCI panel, 48 h
UACC-257 melanoma = tested on: UACC-257 melanoma
K-562 leukemia = tested on: K-562 leukemia
T-47D breast = tested on: T-47D breast
UO-31 renal = tested on: UO-31 renal
SF-539 CNS = tested on: SF-539 CNS
SW-620 colon = tested on: SW-620 colon
U251 CNS = tested on: U251 CNS
MDA-MB-231 breast = tested on: MDA-MB-231 breast
OVCAR-4 ovarian = tested on: OVCAR-4 ovarian
SF-295 CNS = tested on: SF-295 CNS
HOP-92 NSCLC = tested on: HOP-92 NSCLC
IGROV1 ovarian = tested on: IGROV1 ovarian
RPMI-8226 leukemia = tested on: RPMI-8226 leukemia
COLO 205 colon = tested on: COLO 205 colon
OVCAR-8 ovarian = tested on: OVCAR-8 ovarian
MALME-3M melanoma = tested on: MALME-3M melanoma
TK-10 renal = tested on: TK-10 renal
HOP-62 NSCLC = tested on: HOP-62 NSCLC
UACC-62 melanoma = tested on: UACC-62 melanoma
OVCAR-3 ovarian = tested on: OVCAR-3 ovarian
NCI/ADR-RES ovarian = tested on: NCI/ADR-RES ovarian
NCI-H460 lung = tested on: NCI-H460 lung
MOLT-4 leukemia = tested on: MOLT-4 leukemia
HCT-15 colon = tested on: HCT-15 colon
HL-60(TB) leukemia = tested on: HL-60(TB) leukemia
NCI-H23 lung = tested on: NCI-H23 lung
DU-145 prostate = tested on: DU-145 prostate
SF-268 CNS = tested on: SF-268 CNS
RXF 393 renal = tested on: RXF 393 renal
CCRF-CEM leukemia = tested on: CCRF-CEM leukemia
A549 NSCLC = tested on: A549 NSCLC
HT29 colon = tested on: HT29 colon
SNB-75 CNS = tested on: SNB-75 CNS
SNB-19 CNS = tested on: SNB-19 CNS
EKVX NSCLC = tested on: EKVX NSCLC
CAKI-1 renal = tested on: CAKI-1 renal
786-0 renal = tested on: 786-0 renal
M14 melanoma = tested on: M14 melanoma
MCF7 breast = tested on: MCF7 breast
A498 renal = tested on: A498 renal
SK-MEL-28 melanoma = tested on: SK-MEL-28 melanoma
HCT-116 colon = tested on: HCT-116 colon
HCC-2998 colon = tested on: HCC-2998 colon
SR leukemia = tested on: SR leukemia
KM12 colon = tested on: KM12 colon
OVCAR-5 ovarian = tested on: OVCAR-5 ovarian
PC-3 prostate = tested on: PC-3 prostate
MDA-MB-435 = tested on: MDA-MB-435
BT-549 breast = tested on: BT-549 breast
SN12C renal = tested on: SN12C renal
NCI-H226 lung = tested on: NCI-H226 lung
SK-MEL-5 melanoma = tested on: SK-MEL-5 melanoma
LOX IMVI melanoma = tested on: LOX IMVI melanoma
SK-OV-3 ovarian = tested on: SK-OV-3 ovarian
NCI-H522 lung = tested on: NCI-H522 lung
ACHN renal = tested on: ACHN renal

Compound `CC(=O)c1ccc(N2CCN(C3=CC(=O)c4c(O)ccc(O)c4C3=O)CC2)cc1` has a TGI (UACC-257 melanoma) greater than 100 µM, a TGI (K-562 leukemia) greater than 100 µM and a TGI (T-47D breast) greater than 100 µM. It also gave a TGI (UO-31 renal) of 35.5 µM, a TGI (SF-539 CNS) greater than 100 µM and a TGI (SW-620 colon) greater than 100 µM. For the same compound, the TGI (U251 CNS) was 50.3 µM, the TGI (MDA-MB-231 breast) was 94.8 µM and the TGI (OVCAR-4 ovarian) was greater than 100 µM. The TGI (SF-295 CNS) was greater than 100 µM, the TGI (HOP-92 NSCLC) was 79.2 µM and the TGI (IGROV1 ovarian) was greater than 100 µM. For the same compound, the TGI (RPMI-8226 leukemia) was greater than 100 µM, the TGI (COLO 205 colon) was greater than 100 µM and the TGI (OVCAR-8 ovarian) was greater than 100 µM. The TGI (MALME-3M melanoma) was greater than 100 µM, the TGI (TK-10 renal) was greater than 100 µM and the TGI (HOP-62 NSCLC) was greater than 100 µM. The TGI (UACC-62 melanoma) was greater than 100 µM, the TGI (OVCAR-3 ovarian) was greater than 100 µM and the TGI (NCI/ADR-RES ovarian) was greater than 100 µM. The TGI (NCI-H460 lung) was greater than 100 µM, the TGI (MOLT-4 leukemia) was greater than 100 µM and the TGI (HCT-15 colon) was 55.6 µM. The TGI (HL-60(TB) leukemia) was 38.6 µM, the TGI (NCI-H23 lung) was greater than 100 µM and the TGI (DU-145 prostate) was greater than 100 µM. For the same compound, the TGI (SF-268 CNS) was greater than 100 µM, the TGI (RXF 393 renal) was greater than 100 µM and the TGI (CCRF-CEM leukemia) was greater than 100 µM. The TGI (A549 NSCLC) was greater than 100 µM, the TGI (HT29 colon) was greater than 100 µM and the TGI (SNB-75 CNS) was 61.7 µM. For the same compound, the TGI (SNB-19 CNS) was greater than 100 µM, the TGI (EKVX NSCLC) was greater than 100 µM and the TGI (CAKI-1 renal) was greater than 100 µM. The TGI (786-0 renal) was greater than 100 µM, the TGI (M14 melanoma) was greater than 100 µM and the TGI (MCF7 breast) was greater than 100 µM. For the same compound, the TGI (A498 renal) was greater than 100 µM, the TGI (SK-MEL-28 melanoma) was greater than 100 µM and the TGI (HCT-116 colon) was greater than 100 µM. For the same compound, the TGI (HCC-2998 colon) was greater than 100 µM, the TGI (SR leukemia) was greater than 100 µM and the TGI (KM12 colon) was greater than 100 µM. For the same compound, the TGI (OVCAR-5 ovarian) was greater than 100 µM and the TGI (PC-3 prostate) was greater than 100 µM.

`O=c1c(O)cccn1CCCN(CCCn1cccc(O)c1=O)CCn1cccc(O)c1=O` was tested, and the GI50 (UACC-257 melanoma) was 3.42 µM, the TGI (UACC-257 melanoma) was 22.4 µM and the GI50 (K-562 leukemia) was 3.97 µM. For the same compound, the TGI (K-562 leukemia) was greater than 100 µM, the GI50 (T-47D breast) was 5.64 µM and the TGI (T-47D breast) was greater than 100 µM. For the same compound, the GI50 (UO-31 renal) was 7.6 µM, the TGI (UO-31 renal) was greater than 100 µM and the GI50 (SF-539 CNS) was 3.12 µM. For the same compound, the TGI (SF-539 CNS) was greater than 100 µM, the GI50 (SW-620 colon) was 9.02 µM and the TGI (SW-620 colon) was greater than 100 µM. For the same compound, the GI50 (U251 CNS) was 1.84 µM, the TGI (U251 CNS) was greater than 100 µM and the GI50 (MDA-MB-435) was 3.46 µM. It also gave a TGI (MDA-MB-435) greater than 100 µM, a GI50 (MDA-MB-231 breast) of 8.28 µM and a TGI (MDA-MB-231 breast) greater than 100 µM. For the same compound, the GI50 (OVCAR-4 ovarian) was 3.95 µM, the TGI (OVCAR-4 ovarian) was greater than 100 µM and the GI50 (SF-295 CNS) was 3.63 µM. It also gave a TGI (SF-295 CNS) greater than 100 µM, a GI50 (HOP-92 NSCLC) of 6.1 µM and a TGI (HOP-92 NSCLC) greater than 100 µM. The GI50 (IGROV1 ovarian) was 23.6 µM, the TGI (IGROV1 ovarian) was greater than 100 µM and the GI50 (RPMI-8226 leukemia) was 1.99 µM. For the same compound, the TGI (RPMI-8226 leukemia) was greater than 100 µM, the GI50 (COLO 205 colon) was 21.6 µM and the TGI (COLO 205 colon) was greater than 100 µM. The GI50 (OVCAR-8 ovarian) was 2.26 µM, the TGI (OVCAR-8 ovarian) was greater than 100 µM and the GI50 (MALME-3M melanoma) was 9.72 µM. For the same compound, the TGI (MALME-3M melanoma) was 85.9 µM, the GI50 (TK-10 renal) was 7.92 µM and the TGI (TK-10 renal) was greater than 100 µM. It also gave a GI50 (HOP-62 NSCLC) of 4.35 µM, a TGI (HOP-62 NSCLC) greater than 100 µM and a GI50 (UACC-62 melanoma) of 2.14 µM. For the same compound, the TGI (UACC-62 melanoma) was 76 µM, the GI50 (OVCAR-3 ovarian) was 3.39 µM and the TGI (OVCAR-3 ovarian) was greater than 100 µM. For the same compound, the GI50 (BT-549 breast) was 10.5 µM, the TGI (BT-549 breast) was greater than 100 µM and the GI50 (NCI/ADR-RES ovarian) was greater than 100 µM. It also gave a TGI (NCI/ADR-RES ovarian) greater than 100 µM, a GI50 (NCI-H460 lung) of 2.36 µM and a TGI (NCI-H460 lung) greater than 100 µM. For the same compound, the GI50 (MOLT-4 leukemia) was 1.79 µM, the TGI (MOLT-4 leukemia) was greater than 100 µM and the GI50 (HCT-15 colon) was 10.3 µM. The TGI (HCT-15 colon) was greater than 100 µM, the GI50 (SN12C renal) was 3.41 µM and the TGI (SN12C renal) was greater than 100 µM. For the same compound, the GI50 (HL-60(TB) leukemia) was 5.54 µM, the TGI (HL-60(TB) leukemia) was 55.3 µM and the GI50 (NCI-H226 lung) was 2.27 µM. The TGI (NCI-H226 lung) was 61.8 µM, the GI50 (NCI-H23 lung) was 21.1 µM and the TGI (NCI-H23 lung) was greater than 100 µM. The GI50 (DU-145 prostate) was 20.1 µM, the TGI (DU-145 prostate) was greater than 100 µM and the GI50 (SF-268 CNS) was 1.9 µM. For the same compound, the TGI (SF-268 CNS) was greater than 100 µM, the GI50 (RXF 393 renal) was 1.86 µM and the TGI (RXF 393 renal) was 9.83 µM. For the same compound, the GI50 (CCRF-CEM leukemia) was 0.386 µM, the TGI (CCRF-CEM leukemia) was 3.79 µM and the GI50 (A549 NSCLC) was 4.03 µM. It also gave a TGI (A549 NSCLC) of 75.2 µM, a GI50 (SK-MEL-5 melanoma) of 2.67 µM and a TGI (SK-MEL-5 melanoma) greater than 100 µM. For the same compound, the GI50 (LOX IMVI melanoma) was 2.13 µM, the TGI (LOX IMVI melanoma) was greater than 100 µM and the GI50 (HT29 colon) was 29.5 µM. The TGI (HT29 colon) was greater than 100 µM, the GI50 (SK-OV-3 ovarian) was 3.37 µM and the TGI (SK-OV-3 ovarian) was greater than 100 µM. It also gave a GI50 (SNB-75 CNS) of 6.1 µM, a TGI (SNB-75 CNS) of 88.2 µM and a GI50 (NCI-H522 lung) of 7.35 µM. The TGI (NCI-H522 lung) was greater than 100 µM, the GI50 (SNB-19 CNS) was 3.78 µM and the TGI (SNB-19 CNS) was greater than 100 µM. For the same compound, the GI50 (ACHN renal) was 7.15 µM, the TGI (ACHN renal) was greater than 100 µM and the GI50 (EKVX NSCLC) was 2.79 µM. The TGI (EKVX NSCLC) was greater than 100 µM, the GI50 (CAKI-1 renal) was 4.79 µM and the TGI (CAKI-1 renal) was greater than 100 µM. The GI50 (786-0 renal) was 7.81 µM, the TGI (786-0 renal) was greater than 100 µM and the GI50 (M14 melanoma) was 5.41 µM. It also gave a TGI (M14 melanoma) of 60.2 µM, a GI50 (MCF7 breast) of 3.89 µM and a TGI (MCF7 breast) greater than 100 µM. For the same compound, the GI50 (A498 renal) was 22.9 µM, the TGI (A498 renal) was greater than 100 µM and the GI50 (SK-MEL-28 melanoma) was 2.31 µM. The TGI (SK-MEL-28 melanoma) was greater than 100 µM, the GI50 (HCT-116 colon) was 2.85 µM and the TGI (HCT-116 colon) was greater than 100 µM. It also gave a GI50 (HCC-2998 colon) of 5.18 µM, a TGI (HCC-2998 colon) greater than 100 µM and a GI50 (SR leukemia) of 0.522 µM. The TGI (SR leukemia) was greater than 100 µM, the GI50 (KM12 colon) was 3.12 µM and the TGI (KM12 colon) was greater than 100 µM. For the same compound, the GI50 (OVCAR-5 ovarian) was greater than 100 µM, the TGI (OVCAR-5 ovarian) was greater than 100 µM and the GI50 (PC-3 prostate) was greater than 100 µM. For the same compound, the TGI (PC-3 prostate) was greater than 100 µM.
